4 molecules from article PMC11785791, “Cryo-EM structure of the calcium-sensing receptor complexed with the kokumi substance γ-glutamyl-valyl-glycine” (Scientific Reports, 2025) can be followed below.

Changes are numbered by the printed parent chain. *1 amine or outer side, *2 acyl side, *3 side chain or, on linkers, in order; H or OH if unused. Where a SMILES comes first, the peptide text is derived from it. γGlu = O=C(O)[CH](CCC(=O)[*:2])N[*:1]

One assay addresses T1, human CaSR P39S mutant (Homo sapiens, UniProt P41180, P39S).
T1 construct: expressed in transfected cells; host or cells: PEAKrapid cells (ATCC), pcDNA 3.1, transient transfection
T1 sequence (P41180 20-1078 P39S): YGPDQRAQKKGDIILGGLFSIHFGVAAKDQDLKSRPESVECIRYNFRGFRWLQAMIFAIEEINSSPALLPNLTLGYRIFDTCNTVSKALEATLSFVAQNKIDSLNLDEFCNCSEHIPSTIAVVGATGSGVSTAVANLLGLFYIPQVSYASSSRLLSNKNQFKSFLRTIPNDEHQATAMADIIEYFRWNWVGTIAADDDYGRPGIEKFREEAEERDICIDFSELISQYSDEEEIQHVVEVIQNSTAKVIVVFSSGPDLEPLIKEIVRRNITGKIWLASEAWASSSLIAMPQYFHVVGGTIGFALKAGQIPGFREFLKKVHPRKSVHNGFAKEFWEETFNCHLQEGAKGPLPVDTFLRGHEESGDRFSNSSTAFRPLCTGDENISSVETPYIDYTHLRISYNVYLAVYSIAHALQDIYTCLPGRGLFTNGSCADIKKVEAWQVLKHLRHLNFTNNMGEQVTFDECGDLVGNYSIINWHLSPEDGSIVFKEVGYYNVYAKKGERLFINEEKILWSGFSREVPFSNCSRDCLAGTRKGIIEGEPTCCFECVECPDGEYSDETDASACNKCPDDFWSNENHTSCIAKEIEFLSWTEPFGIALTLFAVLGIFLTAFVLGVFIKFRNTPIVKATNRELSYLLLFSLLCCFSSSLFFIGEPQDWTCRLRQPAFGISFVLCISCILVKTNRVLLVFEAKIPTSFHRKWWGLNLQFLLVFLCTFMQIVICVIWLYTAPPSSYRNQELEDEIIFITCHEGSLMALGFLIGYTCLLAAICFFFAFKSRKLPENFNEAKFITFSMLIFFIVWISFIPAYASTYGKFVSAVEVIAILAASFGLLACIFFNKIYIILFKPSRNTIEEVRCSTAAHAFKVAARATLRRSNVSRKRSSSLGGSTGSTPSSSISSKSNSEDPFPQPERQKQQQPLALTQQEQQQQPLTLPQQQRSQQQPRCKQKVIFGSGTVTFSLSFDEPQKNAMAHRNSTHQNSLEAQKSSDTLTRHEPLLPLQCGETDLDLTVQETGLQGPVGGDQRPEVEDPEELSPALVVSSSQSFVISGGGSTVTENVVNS
Put plainly: Calcium mobilization assay, CaSR P39S mutant. The format is cell-based. The following applies: for Response in calcium mobilization assay: in words. As for the experimental part:
(§1) The CaSR receptor responsiveness was assessed by using PEAK^rapid cells (ATCC, Manassas, VA, USA) transiently transfected with the receptor DNA by the method reported by Kitajima et al.[6]. Briefly, human CaSR or its mutant cDNA with a signal sequence (MAFYSCCWVLLALTWHTSA) followed by FLAG-tag (DYKDDDDK) were inserted into pcDNA 3.1 expression vectors in Opti-MEM I medium (Thermo Fisher Scientific), mixed with FuGENE 6 (Roche), and poured onto PEAK^rapid cells grown at a submaximal concentration. After culturing for 24 h in 96-well plates, the cells were incubated with 5 µM Calcium-5 solution (Calcium-5 assay kit, Molecular Devices) for 45–60 min, and measurements were performed using a plate reader (FDSS/µCELL, Hamamatsu Photonics, Shizuoka, Japan) and its associated software. The activation of CaSR expressed in cells increases the intracellular Ca^2+ concentration, which is measured using a Ca^2+-sensitive dye. The binding of Ca^2+ to the Ca^2+-sensitive dye increases dye fluorescence, with excitation at 485 nm and emission at 525 nm. Test compounds were dissolved and administered in the assay buffer (146 mM NaCl, 1 mM MgSO4, 20 mM HEPES, 1 mM CaCl2, 2.5 mM probenecid, and 1.39 mM glucose, pH 7.4). Transiently transfected cells were challenged with compounds and compared with the vehicle alone and/or mock-transfected cells. The concentration dependence of the fluorescence intensity (influx of Ca^2+) was analyzed using the plate reader at 1 s intervals for 180 s. For the dose–response curve calculations, peak fluorescence responses after the addition of compounds were corrected for, normalized to the background fluorescence (ΔF/F = –F − F0)/F0), and baseline noise was subtracted. Dose–response curves were calculated by non-linear regression using GraphPad PRISM 8.0.

Another assay has as its target T2, human CaSR F42S mutant (Homo sapiens, UniProt P41180, F42S).
T2 construct: expressed in transfected cells; host or cells: PEAKrapid cells (ATCC), pcDNA 3.1, transient transfection
T2 sequence (P41180 20-1078 F42S): T1 sequence (P41180 20-1078 P39S) with S20P, F23S
Description: Calcium mobilization assay, CaSR F42S mutant. The format is cell-based. As to conditions: for Response in calcium mobilization assay: in words. As for the experimental part: as §1

Regarding `N[C@@H](Cc1ccc(O)cc1)C(=O)O` [L-Tyr, L-tyrosine], the “Response in calcium mobilization assay” value at human CaSR P39S mutant and at human CaSR F42S mutant was “no response” in each case.

Regarding `CC(C)[C@H](NC(=O)CC[C@H](N)C(=O)O)C(=O)O` [γ-EV, γ-glutamyl-valine], the “Response in calcium mobilization assay” value at human CaSR P39S mutant and at human CaSR F42S mutant was “no response” throughout.

Consider `CC(C)C(NC(=O)CCC(N)C(=O)O)C(=O)NCC(=O)O` (stereo not drawn) [γ-EVG, γ-glutamyl-valyl-glycine] (γGlu-Val-Gly-OH; configuration not given here), for which the “Response in calcium mobilization assay” value on human CaSR P39S mutant was “large decrease in the response”.

For `[Ca+2].[Cl-].[Cl-]` [CaCl2], the results for the “Emax (% of wild-type values)” value on human CaSR P39S mutant and on human CaSR F42S mutant were 74.5 % of WT and 87.0 % of WT, respectively. The half-maximal effective concentration (EC50) was determined as 7.52 ± 0.23 mM on human CaSR P39S mutant (mean ± s.e.m., n = 3) and 6.6 ± 0.3 mM on human CaSR F42S mutant (mean ± s.e.m., n = 3).
